# From patent US20250353873A1, “COMPOUNDS AND METHODS FOR MODULATING APOE EXPRESSION” (Ionis Pharmaceuticals, Inc., priority 2024, published 2025)
# Strand notation (5' to 3'): a small letter for the sugar, then the base; units joined by * are phosphorothioate-linked, units joined directly phosphodiester-linked; [ ] holds rarer units or linkages, { } end groups; capitals alone tell only the bases. [ms] = mesyl phosphoramidate linkage; e = 2'-O-(2-methoxyethyl) (MOE); k = constrained ethyl (cEt); [5mC] = 5-methylcytosine; d = 2'-deoxy (DNA)
# Tests used:
# [1] = system: human APOE RNA; experiment: Dose-dependent reduction of human APOE RNA in HepG2 cells, electroporation, 20,000 cells per well, normalized to PPIA (Example 4, Table 11); type: cell-based; conditions: HepG2 cells, 20,000 cells per well, approximately 24 hours
# Description: HepG2 cells plated at a density of 20,000 cells per well were treated by electroporation with various concentrations of modified oligonucleotide as specified in the tables below. […] APOE RNA levels were measured using the human primer probe set RTS3073 (described herein above). APOE RNA levels were normalized to human PPIA. Human PPIA was amplified using human primer probe set mk_cycloA_2nd (forward sequence […], designated herein as SEQ ID NO: 13; reverse sequence […], designated herein as SEQ ID NO: 14; probe sequence […], designated herein as SEQ ID NO: 15). Normalized results are presented in the table below as percent APOE RNA, relative to the amount of APOE RNA in untreated control cells (% UTC). The half maximal inhibitory concentration (IC50) of each modified oligonucleotide was calculated in GraphPad Prism 10 (GraphPad Software, San Diego, CA) and is also presented in the table below.
# [2] = system: human APOE RNA; experiment: Potency (dose response, ED50) in APOE C57BL/6NTac-Apoeem7250 knock-in mice, 8 weeks (Example 15); type: in vivo
# Description: (§1) Modified oligonucleotides described above were tested in the APOE C57BL/6NTac-Apoeem7250 knock-in mouse model described above.
# APOE C57BL/6NTac-Apoeem7250 knock-in mice were divided into groups of 3-4 mice each. A group of 4 mice received a single ICV bolus with PBS as a negative control.
# (§2) Eight weeks post treatment, mice were sacrificed, and RNA was extracted from cortical brain tissue and spinal cord for quantitative real-time RT-PCR analysis of RNA expression of […] using human primer probe set RTS3073 (described herein above). APOE RNA levels were normalized to mouse Ppia. Mouse Ppia was amplified using primer probe set m_cyclo24 (described herein above). Results are presented as percent human APOE RNA relative to the amount of APOE RNA in PBS treated animals, (% control). N.C. indicates values that were not calculated.
# (§3) The half maximal effective dose (ED50) of each modified oligonucleotide was calculated using GraphPad Prism 10 software (GraphPad Software, San Diego, CA).
# [3] = system: human APOE RNA; experiment: Duration of action study in APOE C57BL/6NTac-Apoeem7250 knock-in mice (Example 16); type: in vivo; conditions: 300 μg ICV
# Method in brief: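 Knock-in mice (2-4 per group) received a single ICV bolus of 300 μg oligonucleotide or PBS. At various timepoints, cortex and spinal cord human APOE RNA was measured by RT-qPCR (RTS3073), normalized to mouse Ppia and expressed as % of PBS control.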
# [4] = system: human APOE RNA; experiment: Dose-dependent inhibition of human APOE RNA in HepG2 cells, electroporation, 50,000 cells per well, RT-PCR normalized to GAPDH (Example 4, Tables 8-10); type: cell-based; conditions: HepG2, electroporation, 24-hour treatment
# Method in brief: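 Readout is percent APOE RNA versus untreated controls, measured by RT-PCR (primer probe set RTS3073) and normalized to human GAPDH. Modified oligonucleotides were delivered by electroporation at varying doses into HepG2 cells plated at 50,000 per well.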
# [5] = system: human APOE RNA; experiment: Potency (dose response, ED50) in APOE C57BL/6NTac-Apoeem7250 knock-in mice, 4 weeks (Example 14); type: in vivo
# Description: as §1
# APOE C57BL/6NTac-Apoeem7250 knock-in mice were divided into groups of 3-4 mice each. A group of 3-4 mice received a single ICV bolus with PBS as a negative control.
# as §2, with “Four” for “Eight”, “calculated. Each experiment is identified in separate tables below.” for “calculated.”
# as §3
# [6] = cortex, single ICV bolus, GraphPad Prism 10
# [7] = spinal cord, single ICV bolus, GraphPad Prism 10
substance,measurement,setting,value
TezTeoGeoGksTdsGdzAdzAdzTds^mCdsTdsTdsTdsAdzTksTksAesAesAes^mCe (antisense eT[ms]eTeGkG*dT*dG[ms]dA[ms]dA[ms]dT*d[5mC]*dT*dT*dT*dA[ms]kT*kT*eA*eA*eA*e[5mC]) [Compound No. 1809814],APOE RNA (% UTC) 5 nM,"[1]; PPIA-normalized, 5 nM",102 % UTC
same,APOE RNA (% UTC) 13 nM,"[1]; PPIA-normalized, 13 nM",95 % UTC
same,APOE RNA (% UTC) 33 nM,"[1]; PPIA-normalized, 33 nM",95 % UTC
same,APOE RNA (% UTC) 82 nM,"[1]; PPIA-normalized, 82 nM",88 % UTC
same,APOE RNA (% UTC) 205 nM,"[1]; PPIA-normalized, 205 nM",71 % UTC
same,APOE RNA (% UTC) 512 nM,"[1]; PPIA-normalized, 512 nM",49 % UTC
same,"APOE RNA (% UTC) 1,280 nM","[1]; PPIA-normalized, 1,280 nM",19 % UTC
same,"APOE RNA (% UTC) 3,200 nM","[1]; PPIA-normalized, 3,200 nM",31 % UTC
same,"APOE RNA (% UTC) 8,000 nM","[1]; PPIA-normalized, 8,000 nM",8 % UTC
same,"APOE RNA (% UTC) 20,000 nM","[1]; PPIA-normalized, 20,000 nM",13 % UTC
same,IC50,"[1]; reduction of human APOE RNA, PPIA-normalized",0.54 µM
same,APOE RNA (% control) Cortex,"[2]; cortex, ICV dose 10 μg",97 % control
same,APOE RNA (% control) Cortex,"[2]; cortex, ICV dose 30 μg",85 % control
same,APOE RNA (% control) Cortex,"[2]; cortex, ICV dose 100 μg",72 % control
same,APOE RNA (% control) Cortex,"[2]; cortex, ICV dose 300 μg",47 % control
same,APOE RNA (% control) Cortex,"[2]; cortex, ICV dose 700 μg",37 % control
same,ED 50 (μg) Cortex,[2]; [6],309.5 µg
same,APOE RNA (% control) Spinal Cord,"[2]; spinal cord, ICV dose 10 μg",81 % control
same,APOE RNA (% control) Spinal Cord,"[2]; spinal cord, ICV dose 30 μg",60 % control
same,APOE RNA (% control) Spinal Cord,"[2]; spinal cord, ICV dose 100 μg",45 % control
same,APOE RNA (% control) Spinal Cord,"[2]; spinal cord, ICV dose 300 μg",29 % control
same,APOE RNA (% control) Spinal Cord,"[2]; spinal cord, ICV dose 700 μg",28 % control
same,ED 50 (μg) Spinal Cord,[2]; [7],78.7 µg
same,APOE RNA (% control) Cortex,[3]; 7 days post-dose,62 % control
same,APOE RNA (% control) Cortex,[3]; 14 days post-dose,57 % control
same,APOE RNA (% control) Spinal Cord,[3]; 7 days post-dose,84 % control
same,APOE RNA (% control) Spinal Cord,[3]; 14 days post-dose,53 % control
1746809 (k[5mC]*dT[ms]kT*dG[ms]kG*dT[ms]dG[ms]dA[ms]dA[ms]dT*d[5mC]*dT*dT*dT*dA[ms]dT*dT[ms]kA*kA*kA; antisense) [Compound 1746809],APOE RNA (% UTC),[4]; 5 nM,91 % UTC
same,APOE RNA (% UTC),[4]; 33 nM,98 % UTC
same,APOE RNA (% UTC),[4]; 82 nM,74 % UTC
same,APOE RNA (% UTC),[4]; 205 nM,81 % UTC
same,APOE RNA (% UTC),[4]; 512 nM,54 % UTC
same,APOE RNA (% UTC),"[4]; 1,280 nM",35 % UTC
same,APOE RNA (% UTC),"[4]; 3,200 nM",33 % UTC
same,APOE RNA (% UTC),"[4]; 8,000 nM",23 % UTC
same,APOE RNA (% UTC),"[4]; 20,000 nM",14 % UTC
same,IC50,[4],0.84 µM
same,APOE RNA (% control) Cortex,"[5]; cortex, ICV dose 10 μg",98 % control
same,APOE RNA (% control) Cortex,"[5]; cortex, ICV dose 30 μg",89 % control
same,APOE RNA (% control) Cortex,"[5]; cortex, ICV dose 100 μg",79 % control
same,APOE RNA (% control) Cortex,"[5]; cortex, ICV dose 300 μg",57 % control
same,APOE RNA (% control) Cortex,"[5]; cortex, ICV dose 700 μg",41 % control
same,ED 50 (μg) Cortex,[5]; [6],446.6 µg
same,APOE RNA (% control) Spinal Cord,"[5]; spinal cord, ICV dose 10 μg",105 % control
same,APOE RNA (% control) Spinal Cord,"[5]; spinal cord, ICV dose 30 μg",92 % control
same,APOE RNA (% control) Spinal Cord,"[5]; spinal cord, ICV dose 100 μg",59 % control
same,APOE RNA (% control) Spinal Cord,"[5]; spinal cord, ICV dose 300 μg",48 % control
same,APOE RNA (% control) Spinal Cord,"[5]; spinal cord, ICV dose 700 μg",64 % control
same,ED 50 (μg) Spinal Cord,[5]; [7],652.7 µg
same,APOE RNA (% control) Cortex,[3]; 112 days post-dose,55 % control
same,APOE RNA (% control) Cortex,[3]; 140 days post-dose,66 % control
same,APOE RNA (% control) Spinal Cord,[3]; 112 days post-dose,86 % control
same,APOE RNA (% control) Spinal Cord,[3]; 140 days post-dose,107 % control
